Laboratory results from patent US6881825B1, “Identication of peptides that facilitate uptake and cytoplasmic and/or nuclear transport of proteins, DNA and virues” (University of Pittsburgh of The Commonwealth System of …, priority 1999, dated 2005).
“Also recorded” adds a separate entry of the source. Where no end group is shown, it is not given here.

Experiments:
rabbit synovial lining = experiment: In vivo transfer of peptide-conjugated β-gal after injection into rabbit knee; details: for level of uptake of β-gal into rabbit synovial lining: FIG. 4A, injection into rabbit knee, compared with adenoviral vector encoding β-gal
Method: Peptide-β-gal complexes (fusions) were injected into rabbit knee synovial lining, the lining as then removed, washed with wash buffer, fixed with 4% paraformaldehyde, and stained with β-gal.
(§1) Peptide 5 (SEQ ID NO:5) was able to facilitate uptake of β-gal in nearly 100% of the synovial cells in vivo (FIG. 4B).

Hig-82 cells [1] = experiment: Peptide-β-gal complex internalization, X-gal staining; assay type: cell-based, rabbit; details: for transduction/transfer activity of the peptide (in words): as summarised with CD spectra and competition data; for relative strength of internalization of β-gal (concentration needed): FIG. 1B, various concentrations of peptide linked to β-gal, 1:1=150 nM of β-gal
Method: (§2) Internalizing peptides 1-6 (SEQ ID Nos:1-6 respectively), which were identified as described above in Example 3, were synthesized, and biotinylated (synthesis and biotinylation performed by the Biotech Center of the University of Pittsburgh). The biotinylated peptides were then conjugated to avidin β-gal or avidin Cy3 at room temperature for 2 hours.
(§3) The peptide conjugates were then added to cells (Hig-82 cells, rabbit synovial cells, human synovial cells, rabbit synovial lining, human primary airway cells HBE 144, human primary islet cells, murine myoblast cells C2C12, dog kidney epithelial cells MDCK, murine fibroblast cells NIH3T3 and murine tumor cells MCA 205 (human synovial cells and human primary airway cells (HBE144) were isolated from patients from the Presbyterian Hospital, University of Pittsburgh by standard techniques for establishing a primary cell culture; human islet cells were provided by the University of Miami and were isolated by standard techniques for establishing a primary cell culture; C2C12, MDCK, 3T3 and MCA205 cells were purchased from ATTC, Bethesda, Md.; all cells were cultured in DMEM and grown to 100% confluency) and incubated while gently rotating at 37° C. for 3 hours with TBS buffer. The cells were then washed 10 times with TBS buffer and fixed with 4% paraformaldehyde at room temperature for 30 minutes. Cells were then washed 3 times with TBS buffer and stained with 1 mg/ml X-gal (Bochringer Mannheim, Indianapolis) at 37° C. overnight for β-gal-conjugated peptides. Cells which were blue indicated the presence of β-gal in the cells. For Cy3-conjugated peptides, fluorescence of the cells as measured by confocal microscopy indicated the ability of the peptide to internalize the Cy3 (a small molecule cargo).
TAT-PTD (YGRKKRRQRRR; SEQ ID NO:21), and a random control peptide (ARPILEHGSDKAT; SEQ ID NO:20). […] In FIG. 1B, various concentrations of peptides linked to β-gal were tested (1:1=150 nM of β-gal).

MCA205 tumors = experiment: Growth of MCA205 fibrosarcomas under daily intra-tumoral injection; assay type: in vivo; details: repeated administration
Method: To determine whether the death peptide could induce apoptosis in tumor cells and inhibit tumor growth in vivo, C57BL/6 mice bearing day 7 tumors in each […] (seeded with 1×10^5 MCA205 cells) were injected daily for 10 days with a 50 μl volume of 1 mM death peptide (SEQ ID NO:24; DP1) or the apoptotic peptide alone (SEQ ID NO:23; KLA) or a saline mock into both tumors. Five mice were used in each group. Tumor volume was estimated by multiplying maximum length×width^2. Separately, C57BL/6 with single, day 12 tumors were injected with 1 mM death peptide (SEQ ID NO:24; DP1), apoptotic peptide alone (SEQ ID NO:23; KLA) or saline for eleven days. Ten mice comprised each group. On the final day, the mice were injected with the appropriate saline or peptide solution and sacrificed 3 hours post-injection. Tumors were paraffin-embedded, sectioned, and stained for TUNEL and counterstained with methyl green or stained with hematoxylin and eosin to reveal histologic architecture.

Hig-82 cells [2] = experiment: Peptide competition assay for internalization of peptide-conjugated β-gal; assay type: cell-based, rabbit; details: for blocking of internalization of peptide-conjugated β-gal by non-biotinylated peptide: FIG. 5, conjugates of peptide 2, 3, 4 and 5, 3 hours at 37° C.
Method: A peptide competition assay was carried out to determine the relative efficiency and specificity of the various peptides. The peptides were conjugated to β-gal as described above in Example 4 and incubated with Hig-82 cells grown to 85% confluency in 24 well plates in the presence of non biotinylated peptides for 3 hours at 37° C. in TBS buffer while being gently rotated. The cells were then washed 10 times with TBS buffer, fixed with 4% paraformaldehyde at room temperature for 30 minutes, washed 3 times with TBS buffer, and stained with Xgal, as described above in Example 4, overnight. Cells which stained blue had internalized peptide-conjugated β-gal.

[3] = test system: rabbit synovial fibroblasts; experiment: Internalization of Cy3-labeled peptide/M13 phage complex; assay type: cell-based; details: FIG. 13D vs control phage
Text: Therefore, the peptides of the present invention are useful for facilitating the internalization of virus and viral vectors.

MCA 205 tumor cells = experiment: Intra-tumoral injection of peptide-β-gal complex, X-gal staining of tumor; assay type: in vivo, mouse; details: day 14 subcutaneous MCA-205 tumors, single intra-tumoral injection
Method: as §1
To make the nucleic acid encoding the peptide-eGFP fusion depicted in FIG. 9A, PCR was employed using 5′ and 3′ primers that encoded the peptide and a his tag, respectively, and had complimentary sequences to eGFP DNA coding sequences. […] MCA 205 tumor cells (5×10^5 cells) were injected subcutaneously into the flank of a C57/BL6 mouse. At day 14, a single intra-tumoral injection of the peptide β-gal complex was performed. The mice were sacrificed 3 hours post-injection and the tumor tissue was isolated, sectioned and stained with X-gal.

rabbit synovial cells = experiment: Peptide-β-gal internalization, X-gal staining; assay type: cell-based; details: rabbit (primary) synovial cells; FIG. 2, 6B
Method: as §2, §3

human synovial cells = experiment: Peptide-β-gal internalization, X-gal staining; assay type: cell-based; details: human (primary) synovial cells; FIG. 3, 6C
Method: as §2, §3

NIH3T3 cells = experiment: Peptide-β-gal uptake, X-gal staining; assay type: cell-based, murine; details: FIG. 6I
Method: as §3, with “Cells which were blue indicated the presence of β-gal in the cells.” left out, “cargo). […]” for “cargo).”

human dendritic cells = experiment: Internalization of peptide5-eGFP fusion protein, fluorescence; assay type: cell-based; details: peptide fused to eGFP; FIG. 9F-G
CD34+/LIN− stem cells = experiment: Transduction with biotin-peptide/avidin-β-gal complex; assay type: cell-based; details: FIG. 17
Text: Peptide 5 is biotin labeled and the β-gal is avidin labeled so that they may be linked together by an avidin/biotin interaction. The cells which stained dark were transduced with the peptide/β-gal complex as indicated by an arrow.

human islets = experiment: Internalization of peptide5-eGFP fusion protein, fluorescence; assay type: cell-based; details: peptide fused to eGFP; FIG. 9B-E
HIG82 cells = experiment: Cell viability by MTT assay (OD 570 nm); assay type: cell-based, rabbit; details: HIG-82 cells; 100-3.1 μM peptide, three hours; FIG. 14, 15
Method: 2×10^5 cells (HIG82, MCA205 or Jurkatt) were seeded into 24 well plates. Forty-eight hours later, 100 μM, 50 μM, 25 μM, 6.25 μM and 3.1 μM of the either the death peptide (SEQ ID NO:24), peptide 5 alone (SEQ ID NO:5) or the apoptotic peptide alone (SEQ ID NO:23) was added to the cells. To check for cell viability, three hours later, the media was aspirated and 1 ml of scrum-free media containing 0.25 mg of MTT was added to each well and incubated for 4 hours at 37° C. MTT-containing media was then removed and 1 ml of absolute isopropanol containing 0.4N HCl was added. Photographs were taken of the plates, then the cells were harvested and any debris was centrifuged. OD as taken at λ=570 nm. Each sample point was performed in triplicate.

Hig-82 cells [4] = experiment: Internalization of peptide-streptavidin-488 complex, fluorescence and confocal microscopy; assay type: cell-based, rabbit
Text: See Bayer et al., Histochem. Cytochem. 24:933-939 (1976); Ivanenkov & Menon, Biochim. Biophys. Acta. 1448:463-472 (1999). The use of the 488 flourescent marker allows for analysis of the treated cells by confocal microscopy to determine the exact location of the complexes in the cells.

[5] = test system: human β islet primary cells; experiment: Peptide-β-gal uptake, X-gal staining; assay type: cell-based; details: FIG. 6F
Method: as §3
(§4) FIG. 9A is a schematic representation of the expression construct encoding the peptide5-eGFP fusion protein.

[6] = test system: MCA205 murine fibrosarcoma cells; experiment: Peptide-β-gal uptake, X-gal staining; assay type: cell-based; details: FIG. 6H
Method: as §3, §4

[7] = test system: MDCK polarized canine kidney cells; experiment: Peptide-β-gal uptake, X-gal staining; assay type: cell-based; details: FIG. 6E
Method: as §3, §4

[8] = test system: HBE 144 primary human airway epithelial cells; experiment: Peptide-β-gal uptake, X-gal staining; assay type: cell-based; details: FIG. 6D
Method: as §3, §4

[9] = test system: C2C12 murine myoblast cells; experiment: Peptide-β-gal uptake, X-gal staining; assay type: cell-based; details: FIG. 6G
Method: as §3, §4

[10] = FIG. 12, 100 fold excess of competitor

Row | Sequence | level of uptake of β-gal into rabbit synovial lining (rabbit synovial lining) | transduction/transfer activity of the peptide (in words) (Hig-82 cells [1]) | blocking of internalization of peptide-conjugated β-gal by non-biotinylated peptide (Hig-82 cells [2]) | internalization of intact M13 phage (and nuclear localization of protein complexes) [3] | β-gal staining / internalization in murine tumors in vivo (MCA 205 tumor cells) | internalization of β-gal (rabbit synovial cells) | also measured
1 | ARPILEHGSDKAT (ARPLEHGSDKAT; random peptide library) [reference compound] | no uptake | does not have activity |  |  |  |  | 
2 | RRQRRTSKLMKRGGKLAKLAKKLAKLAK [death peptide] |  |  |  |  |  |  | side-effects in treated mice (MCA205 tumors): no obvious side-effects
3 | PIRRRKKLRRLK (random peptide library) [peptide 4] | highest level of uptake | highly active | blocked the internalization of peptide 2 through peptide 6-conjugated β-gal | able to facilitate internalization and nuclear localization of protein complexes as well as intact M13 phage |  |  | 
4 | PPRLRKRRQLNM (random peptide library) [peptide 3] |  | intermediate activity |  | able to facilitate internalization and nuclear localization of protein complexes as well as intact M13 phage | facilitate the internalization of β-gal into murine tumor cells in vivo | facilitate the internalization of β-gal into rabbit synovial cells | relative strength of internalization of β-gal (concentration needed) (Hig-82 cells [1]): achieved internalization of β-gal at a slightly higher concentration
5 | KRIHPRLTRSIR (random peptide library) [peptide 2] |  | intermediate activity |  | able to facilitate internalization and nuclear localization of protein complexes as well as intact M13 phage |  |  | 
6 | KRIIQRILSRNS (random peptide library) [peptide 1] |  | lower activity | did not block the internalization by any of the peptides |  |  | facilitate the internalization of β-gal into rabbit synovial cells | internalization of β-gal (human synovial cells): facilitate the internalization of β-gal into human synovial cells
7 | RRQRRTSKLMKR (random peptide library) [peptide 5] | highest level of uptake | highly active | blocked the internalization of peptide 2 through peptide 6-conjugated β-gal | detected in the treated cells | significant β-gal staining; also recorded: facilitate the internalization of β-gal into murine tumor cells in vivo | facilitate the uptake of β-gal | inhibition of uptake of TAT-PTD and peptide 5 itself (Hig-82 cells [2]; [10]): significantly inhibit; inhibition of uptake of peptides 3, 4 and antennapedia peptide (Hig-82 cells [2]; [10]): completely inhibit; uptake of β-gal (NIH3T3 cells): facilitate the uptake of β-gal; internalization of eGFP (human dendritic cells): facilitate the internalization of EGFP in human dendritic cells; transduction of stem cells with β-gal (CD34+/LIN− stem cells): transduce CD34+/LIN− stem cells; internalization of eGFP (human islets): facilitate internalization of eGFP in human islets; cell viability (MTT, OD570) (HIG82 cells): did not impair viability; synovial cells with uptake of β-gal in vivo (rabbit synovial lining; FIG. 4B, histology, eosin counter-stain): ~100%; internalization of streptavidin-488 complex (Hig-82 cells [4]; FIG. 13A, biotinylated peptide coupled to streptavidin-488): efficient internalization; nuclear localization of peptide-streptavidin-488 complex (Hig-82 cells [4]; FIG. 13B, confocal microscopy): significant percentage of the peptide-streptavidin-488 complex being found in the nucleus; relative strength of internalization of β-gal (concentration needed) (Hig-82 cells [1]): effect internalization of β-gal linked thereto at a concentration equal to or less than TAT-PTD; uptake of β-gal (Hig-82 cells [1]; FIG. 6A, HIG-82 cells): facilitate the uptake of β-gal; uptake of β-gal [5]: facilitate the uptake of β-gal; uptake of β-gal [6]: facilitate the uptake of β-gal; uptake of β-gal [7]: facilitate the uptake of β-gal; uptake of β-gal [8]: facilitate the uptake of β-gal; uptake of β-gal [9]: facilitate the uptake of β-gal; internalization of β-gal (human synovial cells): facilitate the internalization of β-gal into human synovial cells; also recorded: facilitate the uptake of β-gal
8 | RQIKIWFQNRRMKWKK (antennepedia) [antennapedia peptide, reference compound] |  |  |  |  | facilitate the internalization of β-gal into murine tumor cells in vivo |  | 
9 | YGRKKRRQRRR (human) [TAT-PTD, reference compound] | highest level of uptake |  |  |  |  |  | 
10 | MHKRPTTPSRKM (random peptide library) [peptide 6] |  | only weakly able to transduce cells |  |  |  |  | inhibition of uptake of peptide 2 and 3 (Hig-82 cells [2]; FIG. 12): able to inhibit; transduction/transfer activity of the peptide (in words) (Hig-82 cells [1]; listed as SEQ ID NO:6): lower activity
